{"source": "patent US20120141611A1", "about": "“METHODS AND COMPOSITIONS USING ERGOTHIONEINE TO TREAT A VARIETY OF HEALTH RELATED FACTORS” (Oxis International Inc., priority 2010, published 2012)", "origin": "cited, not measured here", "key": {"[1]": {"conditions": "537 osteoarthritis patients, after 27 weeks; cited from earlier work"}, "intestinal polyps": {"system": "intestinal polyps", "conditions": "mouse, in vivo; cited from earlier work"}, "[2]": {"conditions": "single elderly person, stable seven years later; cited from earlier work"}, "[3]": {"conditions": "people taking vitamin C supplements, 1,032 subjects; cited from earlier work"}}}
{"compound": "hyaluronic acid", "values": [{"measurement": "Joint pain", "setting": "[1]", "result": "significantly reduce joint pain while resting and while walking"}]}
{"compound": "COc1cc(/C=C/C(=O)CC(=O)/C=C/c2ccc(O)c(OC)c2)ccc1O", "note": "[curcumin]", "values": [{"measurement": "Reduction of intestinal polyps", "setting": "intestinal polyps", "result": 75, "unit": "%"}]}
{"compound": "Cyanocobalamin [vitamin B12]", "values": [{"measurement": "Dementia outcome", "setting": "[2]", "result": "their dementia disappeared"}]}
{"compound": "O=C1O[C@H]([C@@H](O)CO)C(O)=C1O", "note": "[vitamin C]", "values": [{"measurement": "Reduced likelihood of developing osteoarthritis in the knee", "setting": "[3]", "result": 11, "unit": "%"}]}
